Activity calls are given as the source filed them. The calls are words filed in the database; no cut-off is given here.
Legend:
[1] = molecular target: T1, Peptidyl-prolyl cis-trans isomerase NIMA-interacting 1 (Homo sapiens, UniProt Q13526); experiment: Binding affinity to Pin1 by isothermal calorimetry
[2] = molecular target: T1, Peptidyl-prolyl cis-trans isomerase NIMA-interacting 1; experiment: Inhibition of Pin1 by PIn1 PPIase assay
[3] = system: PC-3; experiment: Growth inhibition of serum starved human PC3 cells; assay type: functional
[4] = system: PC-3; experiment: Inhibition of cyclin E1 expression in serum starved human PC3 cells; assay type: functional, cell-based
[5] = molecular target: Peptidyl-prolyl cis-trans isomerase A (Homo sapiens) (UniProt P62937); experiment: Inhibition of cyclophilin A
[6] = molecular target: Peptidyl-prolyl cis-trans isomerase FKBP1A (Homo sapiens) (UniProt P62942); experiment: Inhibition of FKBP12
[7] = molecular target: T1, Peptidyl-prolyl cis-trans isomerase NIMA-interacting 1; experiment: Inhibition of Pin1-mediated cyclin D1 expression in serum starved human PC3 cells; assay type: cell-based, PC-3
[8] = molecular target: T1, Peptidyl-prolyl cis-trans isomerase NIMA-interacting 1; experiment: Inhibition of Pin1 in serum starved human PC3 cells assessed as reduction in insulin-induced p7)S6 kinase phosphorylation; assay type: cell-based, PC-3

T1 sequence (Q13526 whole entry): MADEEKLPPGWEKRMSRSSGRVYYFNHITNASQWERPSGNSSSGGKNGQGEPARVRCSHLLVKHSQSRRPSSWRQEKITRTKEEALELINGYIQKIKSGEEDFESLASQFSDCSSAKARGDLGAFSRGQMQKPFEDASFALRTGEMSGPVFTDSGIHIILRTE
Peptidyl-prolyl cis-trans isomerase FKBP1A (Homo sapiens), sequence (P62942 whole entry): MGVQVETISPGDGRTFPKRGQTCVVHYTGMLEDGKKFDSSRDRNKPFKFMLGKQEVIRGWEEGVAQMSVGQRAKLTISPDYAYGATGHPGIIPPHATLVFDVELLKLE
Peptidyl-prolyl cis-trans isomerase A (Homo sapiens), sequence (P62937 whole entry, looked up): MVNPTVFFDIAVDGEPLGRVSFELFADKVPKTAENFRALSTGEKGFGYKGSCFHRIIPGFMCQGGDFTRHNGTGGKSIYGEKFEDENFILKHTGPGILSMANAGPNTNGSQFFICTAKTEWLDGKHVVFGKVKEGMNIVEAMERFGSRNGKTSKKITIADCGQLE

Compound	IC50 [2] [µM]	GI50 [3] [µM]	other results
CCOC(=O)CN(Cc1ccccc1)C(=O)c1nc(-c2ccccc2)[nH]c1C(=O)O	8	> 200	
O=C(O)c1nc(-c2ccccc2)[nH]c1C(=O)N(Cc1ccccc1)Cc1ccccc1	4	21	
O=C(O)c1[nH]c(-c2ccccc2)nc1C(=O)N(CCc1ccccc1)Cc1ccccc1	0.83	13	inhibition [4]: inactive; inhibition [5]: inactive; inhibition [6]: inactive; EC50 [7]: 10 µM; EC50 [8]: 30 µM
NC(=O)CN(Cc1nc2ccccc2s1)C(=O)c1nc(-c2ccccc2)[nH]c1C(=O)O	0.52	> 80	
CN(CC(=O)O)C(=O)c1nc(-c2ccccc2)[nH]c1C(=O)O	9.4		
CN(CC(N)=O)C(=O)c1nc(-c2ccccc2)[nH]c1C(=O)O		> 200	
O=C(O)c1[nH]c(-c2cccc(Cl)c2)nc1C(=O)N(Cc1ccccc1)Cc1ccccc1	1.4	18	Kd [1]: 1.4 µM
O=C(O)c1nc(-c2ccccc2)[nH]c1C(=O)NCc1ccccc1	220		
O=C(O)c1[nH]c(-c2ccccc2)nc1C(=O)N1CCOCC1		> 200	
CN(Cc1ccccc1)C(=O)c1nc(-c2ccccc2)[nH]c1C(=O)O	31	> 200	
COc1ccccc1-c1ccc(C(=O)O)o1	> 1000		

Now from value to compound, other results behind:

IC50 [2] [µM]	GI50 [3] [µM]	Compound	other results
0.32		O=C(O)c1nc(-c2cccc(F)c2)[nH]c1C(=O)O	Kd [1]: 0.52 µM
1.46		O=C(O)c1nc(-c2ccccc2)[nH]c1C(=O)O	
	56	CN(Cc1ccccc1)C(=O)c1[nH]c(-c2cccc(Cl)c2)nc1C(=O)O	
80		CNC(=O)c1nc(-c2ccccc2)[nH]c1C(=O)O	
270		COc1cccc(-c2nc(C)c(C(=O)O)[nH]2)c1	
19		Cc1nc(-c2cccc(C#N)c2)[nH]c1C(=O)O	
140		CCNC(=O)c1nc(-c2ccccc2)[nH]c1C(=O)O	
34		Cc1cccc(-c2nc(C(=O)O)c(C)[nH]2)c1	
21	> 200	O=C(O)c1[nH]c(-c2cccc(Cl)c2)nc1C(=O)N1CCOCC1	
23		Cc1nc(-c2cccc(C(F)(F)F)c2)[nH]c1C(=O)O	

— ChEMBL document CHEMBL1268960, “Discovery of cell-active phenyl-imidazole Pin1 inhibitors by structure-guided fragment evolution” (Bioorg Med Chem Lett, 2010)
